Assay results reported in patent US20240158339A1, “TYRAMINE CONTAINING HYDROXYCINNAMIC ACID AMIDE DERIVATIVES AND METHODS OF USE THEREOF” (Brightseed, Inc., priority 2018, published 2024).
“Also recorded” adds a separate entry of the source.

What was measured:
[1] = test system: insulin mRNA; assay: Insulin mRNA levels by quantitative PCR; format: cell-based; settings: FIG. 2
Experimental: Expression of Insulin and HNF4α. RNA was purified using a RNEASY® chromatographic separation and isolation kits (Qiagen), and converted to cDNA using the gScript™ cDNA SuperMix (Quanta Biosciences). Q-PCR was conducted with cDNA corresponding to 2 μg of RNA using an Opticon Real-Time System (MJ Research) and QPCR SuperMix (BioPioneer). See All mRNA values were normalized to 18S rRNA values and are expressed as fold changes over vehicle-treated control.

[2] = test system: diet-induced obese mice; assay: Efficacy in diet-induced obese mice; format: in vivo
Experimental: Alkaline Phosphatase (ALP) Quantitation. Increased levels of ALP in blood are considered indicative of liver function abnormalities. Thus, ALP was assayed in accordance with known methods (Kiselyuk, et al. (2012) Chem. Biol. 19(7):806-818). Briefly, prior to sacrifice, blood was drawn and analyzed using a VetScan blood analyzer, measuring alkaline phosphatase (ALP, IU/L), alanine aminotransferase (ALT, IU/L), gamma glutamyl transferase (GGT, IU/L), bile acids (BA, μmol/L), total bilirubin (TBIL, mg/dL), albumin (ALB, g/dL), blood urea nitrogen (BUN, mg/dL), and cholesterol (CHOL, mg/dL).
Triglyceride (TG) Quantitation. TG quantity was assayed using a Triglyceride Colorimetric Assay Kit (Cayman Chemicals; Ann Arbor, MI) according to the manufacturer's instructions.
Lipid Droplet Size Analysis. All slides were scanned at a magnification of 20× using the Aperio Scanscope FL system (Aperio Technologies Inc.; Vista, CA). The appropriate dyes were assigned and illumination levels were calibrated using a preset procedure; the parameters were saved and applied to all slides. The acquired digital images represented whole tissue sections. Sections were evaluated for image quality. All acquired images were subsequently placed in dedicated project folders, and stored on a designated local server. Selected areas of the slides were selected using Aperio Imagescope (version 12 Aperio Technologies Inc.). For analysis, slides were viewed, whole tissue areas were selected and analyzed using the web-based Image Scope viewer. Slides were quantified using the ‘Color Deconvolution v9’ algorithm for oil redo staining (version 11 Aperio Technologies Inc.). The algorithm was optimized using a preset procedure to maximize the strong red color positive oil droplets signal to noise ratio and the subsequent macro was saved and applied to all slides.
HNF4α Immunostaining in Organ Samples. Samples were harvested from mice, fixed in 4% paraformaldehyde and embedded in paraffin or O.C.T. freezing media (Sakura Finetek; Torrance, CA). Slides of 5 μm thickness were washed four times with PBS and treated with 0.3% Triton™ in PBS for 10 minutes. Antigen retrieval was carried out with CitriSolv™ (Fisher Scientific; Waltham, MA) for 10 minutes in sub-boiling temperature. After washing with PBS for 10 minutes, slides were incubated in blocking solution with 5% normal donkey serum (Jackson Immuno Research; West Grove, PA) for 60 minutes at room temperature. Cells were fixed in 4% paraformaldehyde for 15 minutes on 4° C. and washed with PBS, treated with 0.3% Triton™ in PBS for 10 minutes and blocked as previously described for slide samples.
Primary Antibodies. HNF4α antibodies were used (#sc-6556, Santa Cruz Biotechnology; Santa Cruz, CA and #3113, Cell Signaling Technology; Danvers, MA). For fluorescent imaging, samples were incubated with ALEXA FLOUR® 488 green-fluorescent dye or Rhodamine labeled anti-mouse, rabbit or goat and nuclei were counterstained with DAPI (4′,6-diamidino-2-phenylindole). Controls using secondary antibodies alone were used to ensure specificity of immunostaining. Fluorescently labeled sections were analyzed with a conventional inverted microscope (Olympus, PlanFl 40x/0.60) or with a confocal microscope equipped with a krypton/argon laser.
The experiments were performed to establish feedingand treatment regimens, dosing and administration regimens, as well as to provide evidence of beneficial effects of N-trans-caffeoyltyramine on glucose and lipid homeostasis, hepatic steatosis, -cell function and hepatocyte function. Twelve mice (10 weeks old) were fed a high-fat diet for four weeks to induce obesity. After four weeks, and while on the high-fat diet, six mice were administered 5% DMSO or 120 mg/kg N-trans-caffeoyltyramine twice a day intraperitoneally for 14 days. One hour after the last i.p. injection of DMSO or N-trans-caffeoyltyramine, the animals were sacrificed and blood and organ (liver, kidney, gut and pancreas) samples were collected. […]

[3] = Hepatic microsome stability assay, rat; format: in vitro ADME; settings: for % Remaining: rat microsomes
Experimental: Hepatic Microsome Assay. Hepatic microsomes stability assays were performed in accordance with known methods (Peddibhotla, et al. (2013) ACS Med. Chem. Lett. 4:846-851). Briefly, 3 μL of 25 μM compound solution in acetonitrile were incubated with 123 μL of mouse, human or rat liver microsomes (Xenotech, Kansas City, KS). After preincubation at 37° C. for 10 minutes, enzyme reactions were initiated by adding 120 !at of NADPH-generating system (2 mM NADP+, 10 mM glucose-6-phosphate, 0.4 U/ml glucose-6-phosphate dehydrogenase, and 5 mM MgCl2) in the presence of 100 mM potassium phosphate buffer (pH 7.4). […] The microsomal concentrations used were 1.0 mg/mL. Compounds were incubated in microsomes for 0, 5, 15, 30 and 60 minutes. The reactions were stopped by the addition of ice cold ACN and the reaction mixtures were centrifuged at 10,000 g for 10 minutes before the supernatant was removed for analysis. A 10 μL portion of the resulting extract was injected on a Thermo HPLC system equipped with PAL CTC plate sampler (96-well plate), Dionex Ultimate 3000 binary pump (flow rate at 0. 600 mL/min), Dionex Ultimate 3000 thermostatted column compartment (temperature at 40° C.), Thermo Endura Mass Spectrometer (ESI source), using a Thermo Scientific Accucore C18 (2.6 μM, 2.1×50 mm) column. A gradient was run starting at 95% H2O (0.1% formic acid) and 5% ACN (0. 1% formic acid) during the first 0. 5 min, then under gradient condition of 5-100% ACN (0.1% formic acid) from minute 0. 5 to 3.5, finishing at 95% H2O (0.1% formic acid) and 5% ACN (0.1% formic acid) over 0.5 min, with another 1 min at 95:5 to re-equilibrate.

In the case of `O=C(/C=C/c1ccc(O)c(O)c1)NCCc1ccc(O)cc1` [N-trans-caffeoyltyramine], the insulin gene expression [1] is reported as “upregulated”, the “lipid accumulation in the liver” value ([2]; 120 mg/kg twice a day i.p. for 14 days vs DMSO) is reported as “decreased lipid accumulation” and the “lipid droplet sizes in the liver” value ([2]; 120 mg/kg twice a day i.p. for 14 days vs DMSO, FIG. 8) is reported as “reduced”. The levels of triglycerides ([2]; 120 mg/kg twice a day i.p. for 14 days vs DMSO, FIG. 10) was “significantly reduced”, the “HNF4α expression in the pancreas” value ([2]; 120 mg/kg twice a day i.p. for 14 days vs DMSO, FIG. 11) was “increased” and the “HNF4α expression in intestines” value ([2]; 120 mg/kg twice a day i.p. for 14 days vs DMSO, FIG. 12) was “increased”. For the same molecule, the “HNF4α expression in the liver (nuclear expression)” value ([2]; 120 mg/kg twice a day i.p. for 14 days vs DMSO, P=0.0042, FIG. 7) was “significantly increased; also recorded: increases nuclear expression of HNF4α”, the “weight loss, sickness, or abnormal behaviors compared to the control group” value ([2]; 120 mg/kg twice a day i.p. for 14 days, high-fat diet mice) was “None of the treated mice exhibited weight loss, sickness, or abnormal behaviors” and the “levels of alkaline phosphatase” value ([2]; blood, 120 mg/kg twice a day i.p. for 14 days vs DMSO, FIG. 9) was “significantly reduced”. For the same molecule, the half-life at 1 μM ([3]; liver microsomes, pH 7.4, 1 μM) was 2.1 min, the microsomal CLint at 1 μM ([3]; liver microsomes, pH 7.4, 1 μM, read-out: Clearance Rate) was 674 µL/min/mg and the half-life at 10 μM ([3]; liver microsomes, pH 7.4, 10 μM) was 22.4 min. The microsomal CLint at 10 μM ([3]; liver microsomes, pH 7.4, 10 μM, read-out: Clearance Rate) was 30.9 µL/min/mg, the “% Remaining” value ([3]; 1 μM) was 0.6% and the “% Remaining” value ([3]; 10 μM) was 33.6%.
